Assay results taken from patent US20160303181A1, “SYNERGISTIC COMBINATION OF ALANINE-GLUTAMINE, HYALURONIC ACID AND OAT EXTRACT AND THE USE THEREOF IN A COMPOSITION INTENDED FOR HEALING WOUNDS AND REPAIRING SKIN LESIONS” (PIERRE FABRE DERMO-COSMETIQUE, priority 2013, published 2016).
Marks after values point to notes of the source that are not given here. Residues, ends and D or L forms follow the SMILES beside them.

System: HaCaT human keratinocyte line
Test: Migration of keratinocytes, Oris Cell Migration Assay
Type: cell-based
Details: DMEM 0% FCS, 24 hours; for effect on the migration of keratinocytes (in words): oat seedling extract 10 or 30 μg/ml, hyaluronate 20 or 60 μg/ml, L-alanyl-L-glutamine 40 or 90 μg/ml, EGF 33 ng/ml; for % Migration (percentage activity compared to the control 0% FCS): control = 100
Text: The objective of this test was to evaluate the effect of hyaluronic acid, oat seedling extract, L-alanyl-L-glutamine and combinations thereof on the migration of keratinocytes using the Oris Cell Migration Assay kit (Platypus Technologies).
The spontaneously immortalised HaCaT human keratinocyte line, frequently cited as reference model in the literature was used.
The protocol used for the study of cell migration is based on the use of a 96 well kit, the Oris Cell Migration Assay (Platypus technologies—TEBU), enabling the miniaturisation and the quantification of this cellular process.
The principle of this test consists in studying cell migration towards the centre of the wells of the 96 well plate. It consists in placing a stopper in the wells, in order to create a 2 mm diameter detection zone. Then removing the stoppers once cells have properly adhered to the surface around them, and thus to enable cells to migrate towards the detection zone. The plates without stoppers and with the active ingredients are incubated at 37° C. for 24 hours in DMEM (Dulbecco's Modified Eagle Medium) 0% FCS (foetal calf serum). The quantity of cells situated in the zone where the stopper was is analysed in order to evaluate the migration of the cells. A mask makes it possible to visualise and to count uniquely the cells situated in this zone. For each condition, the average is determined on 6 to 8 wells.
The cells were incubated in FCS-free medium.
• EGF: 33 ng/ml, • oat seedling extract: 10 or 30 μg/ml,
Filtering. Concentration by drying until a dry extract is obtained. • sodium hyaluronate (molecular weight 250-450 kDa): 20 or 60 μg/ml, • L-alanyl-L-glutamine: 40 or 90 μg/ml.
The Results are Expressed: • In fluorescence intensity (FI), proportional to the quantity of cells having migrated. • In percentage activity compared to the control 0% FCS.
Statistical analyses by the Dunnett test were carried out on the crude migration values. This test then gives “p value” values characterising the significance of the results obtained for different conditions. The degree of significance was fixed at […]

[1] = Table 1, lower concentrations: EGF 33 ng/ml, ES 10 μg/ml, AH 20 μg/ml, A-G 40 μg/ml, control 1850
[2] = Table 1, lower concentrations: EGF 33 ng/ml, ES 10 μg/ml, AH 20 μg/ml, A-G 40 μg/ml
[3] = Table 2, higher concentrations: EGF 33 ng/ml, ES 30 μg/ml, AH 60 μg/ml, A-G 90 μg/ml, control 1729 ± 384
[4] = Table 2, higher concentrations: EGF 33 ng/ml, ES 30 μg/ml, AH 60 μg/ml, A-G 90 μg/ml

## C[C@H](N)C(=O)N[C@@H](CCC(N)=O)C(=O)O [A-G, L-alanyl-L-glutamine] (H-Ala-Gln-OH)
  effect on the migration of keratinocytes (in words): induces the migration of keratinocytes in a concentration-dependent manner
[1]
  Average ± SD (fluorescence intensity, proportional to the quantity of cells having migrated): 2471 ± 788
[2]
  % Migration (percentage activity compared to the control 0% FCS): 200%
[3]
  Average ± SD (fluorescence intensity, proportional to the quantity of cells having migrated): 2586 ± 1092
[4]
  % Migration (percentage activity compared to the control 0% FCS): 194%

## EGF: positive control of the migration experiments, 33 ng/ml
  effect on the migration of keratinocytes (in words): induces the migration of keratinocytes
[1]
  Average ± SD (fluorescence intensity, proportional to the quantity of cells having migrated): 2569±
[2]
  % Migration (percentage activity compared to the control 0% FCS): 216%
[3]
  Average ± SD (fluorescence intensity, proportional to the quantity of cells having migrated): 3553 ± 1556
[4]
  % Migration (percentage activity compared to the control 0% FCS): 301 * %

## sodium hyaluronate [AH]
  effect on the migration of keratinocytes (in words): did not have any significant effect on the migration of keratinocytes
[1]
  Average ± SD (fluorescence intensity, proportional to the quantity of cells having migrated): 1939 ± 438
[2]
  % Migration (percentage activity compared to the control 0% FCS): 114%
[3]
  Average ± SD (fluorescence intensity, proportional to the quantity of cells having migrated): 1735 ± 488
[4]
  % Migration (percentage activity compared to the control 0% FCS): 101%
